3 compounds from ChEMBL document CHEMBL3886724, “Oxazolidinone compounds and derivatives thereof” (2016) can be followed below.

This test concerns the target T1, Poly [ADP-ribose] polymerase tankyrase-1 (Homo sapiens, UniProt O95271).
T1 sequence (O95271 whole entry): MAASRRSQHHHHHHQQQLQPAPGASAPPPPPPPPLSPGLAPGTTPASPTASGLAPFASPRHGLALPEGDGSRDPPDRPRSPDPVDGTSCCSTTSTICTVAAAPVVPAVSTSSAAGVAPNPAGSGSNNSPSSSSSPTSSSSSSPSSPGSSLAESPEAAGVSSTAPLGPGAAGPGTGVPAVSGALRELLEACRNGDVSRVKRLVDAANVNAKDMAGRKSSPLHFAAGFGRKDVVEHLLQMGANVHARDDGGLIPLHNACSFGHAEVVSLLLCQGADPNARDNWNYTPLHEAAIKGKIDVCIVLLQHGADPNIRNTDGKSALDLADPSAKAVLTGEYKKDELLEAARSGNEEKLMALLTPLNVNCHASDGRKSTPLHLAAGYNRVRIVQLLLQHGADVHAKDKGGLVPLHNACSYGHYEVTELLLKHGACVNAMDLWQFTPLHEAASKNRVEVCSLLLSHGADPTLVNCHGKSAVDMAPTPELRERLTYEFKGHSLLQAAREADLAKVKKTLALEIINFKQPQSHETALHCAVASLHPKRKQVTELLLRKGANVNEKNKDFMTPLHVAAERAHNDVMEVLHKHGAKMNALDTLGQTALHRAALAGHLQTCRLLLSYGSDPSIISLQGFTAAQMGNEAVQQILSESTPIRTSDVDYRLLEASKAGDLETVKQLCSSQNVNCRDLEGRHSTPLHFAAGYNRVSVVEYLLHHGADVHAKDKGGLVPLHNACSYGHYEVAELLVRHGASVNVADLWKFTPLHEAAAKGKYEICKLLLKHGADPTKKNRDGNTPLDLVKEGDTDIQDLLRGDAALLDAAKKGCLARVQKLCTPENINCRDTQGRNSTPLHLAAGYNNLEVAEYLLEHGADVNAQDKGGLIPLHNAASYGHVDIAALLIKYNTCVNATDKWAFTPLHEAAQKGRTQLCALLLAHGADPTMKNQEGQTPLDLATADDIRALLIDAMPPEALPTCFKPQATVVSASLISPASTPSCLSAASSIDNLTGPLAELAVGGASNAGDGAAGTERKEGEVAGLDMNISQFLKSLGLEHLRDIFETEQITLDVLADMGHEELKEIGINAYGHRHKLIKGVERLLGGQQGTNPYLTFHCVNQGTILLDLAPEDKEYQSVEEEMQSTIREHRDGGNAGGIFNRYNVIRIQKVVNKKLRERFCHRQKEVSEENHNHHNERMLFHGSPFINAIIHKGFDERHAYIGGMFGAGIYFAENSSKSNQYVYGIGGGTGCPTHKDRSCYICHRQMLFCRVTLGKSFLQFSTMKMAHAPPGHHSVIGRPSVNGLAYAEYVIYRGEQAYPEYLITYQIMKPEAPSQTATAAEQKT
Put plainly: Tankyrase Biochemical Assays: The tankyrase 1 biochemical activity of the compounds was assayed in the following assay buffer (50 mM MOPS pH7.5, 100 mM NaCl, […] MgCl2, 0.01% Tween-20, 0.05% BSA, and 1 mM DTT) as follows: […] of 6×HIS-tankyrase 1 (1091-1325) was incubated in the presence of compound (DMSO […] final) in a Perkin Elmer 384 well Proxiplate Plus™ (cat. no. 6008289) with 400 n.
Take `CC1(C)OC(=O)N([C@H]2CC[C@H](NC(=O)c3csc(-c4ccccc4)n3)CC2)[C@H]1c1ccccc1`: the IC50 (in general, the point on the concentration scale where inhibition reaches its midpoint) came to 5.18 nM.
Take `CC1(C)OC(=O)N([C@H]2CC[C@H](NC(=O)c3ccnc(-c4ccccc4)n3)CC2)[C@H]1c1ccccc1`: the IC50 was 11.4 nM.
`CC1(C)OC(=O)N(c2ccc(-c3cc(-c4ncco4)c[nH]c3=O)cc2)[C@H]1c1ccccc1`: the IC50 was 167 nM.
